Literature values as cited in paper PMC5590101 (Journal of medicinal chemistry, 2016).

Columns and labels:
MDA-MB-231/ATCC = conditions: NCI panel, breast cancer; cited from earlier work
CCRF-CEM = conditions: NCI panel, leukemia; cited from earlier work
[1] = test system: microtubules in A-10 cells; conditions: read-out: EC50 for microtubule depolymerization in A-10 cells; results previously published; cited from earlier work
K-562 = conditions: NCI panel, leukemia; cited from earlier work
MOLT-4 = conditions: NCI panel, leukemia; cited from earlier work
COLO 205 = conditions: NCI panel, colon cancer; cited from earlier work
NCI-H226 = conditions: NCI panel, NSCLC; cited from earlier work
M14 = conditions: NCI panel, melanoma; cited from earlier work
UO-31 = conditions: NCI panel, renal cancer; cited from earlier work
RXF 393 = conditions: NCI panel, renal cancer; cited from earlier work
SK-MEL-28 = conditions: NCI panel, melanoma; cited from earlier work
MDA-MB-435 cells = conditions: read-out: IC50 ± SD MDA-MB-435; results previously published; cited from earlier work
SF-295 = conditions: NCI panel, CNS cancer; cited from earlier work
HOP-92 = conditions: NCI panel, NSCLC; cited from earlier work
SNB-19 = conditions: NCI panel, CNS cancer; cited from earlier work
NCI-H322M = conditions: NCI panel, NSCLC; cited from earlier work
HeLa = conditions: read-out: IC50 ± SD HeLa; parental line; results previously published; cited from earlier work
ACHN = conditions: NCI panel, renal cancer; cited from earlier work
NCI-H460 = conditions: NCI panel, NSCLC; cited from earlier work
HCC-2998 = conditions: NCI panel, colon cancer; cited from earlier work
PC-3 = conditions: NCI panel, prostate cancer; cited from earlier work
HeLa WTβIII = conditions: IC50 HeLa WTβIII / IC50 HeLa; results previously published; cited from earlier work
LOX IMVI = conditions: NCI panel, melanoma; cited from earlier work
IGROVI = conditions: NCI panel, ovarian cancer; cited from earlier work
786–0 = conditions: NCI panel, renal cancer; cited from earlier work
OVCAR-8 = conditions: NCI panel, ovarian cancer; cited from earlier work
SK-OV-3 MDR1-M6/6 = conditions: IC50 MDR1-M6/6 / IC50 SK-OV-3; results previously published; cited from earlier work
HS 578T = conditions: NCI panel, breast cancer; cited from earlier work
SR = conditions: NCI panel, leukemia; cited from earlier work
OVCAR-5 = conditions: NCI panel, ovarian cancer; cited from earlier work
SN12C = conditions: NCI panel, renal cancer; cited from earlier work
HCT-15 = conditions: NCI panel, colon cancer; cited from earlier work
SK-MEL-5 = conditions: NCI panel, melanoma; cited from earlier work
MDA-MB-435 = conditions: NCI panel, melanoma; cited from earlier work
MDA-MB-468 = conditions: NCI panel, breast cancer; cited from earlier work
DU-145 = conditions: NCI panel, prostate cancer; cited from earlier work
BT-549 = conditions: NCI panel, breast cancer; cited from earlier work
NCI/ADR-RES = conditions: NCI panel, ovarian cancer; cited from earlier work
HL-60(TB) = conditions: NCI panel, leukemia; cited from earlier work
OVCAR-3 = conditions: NCI panel, ovarian cancer; cited from earlier work
OVCAR-4 = conditions: NCI panel, ovarian cancer; cited from earlier work
SK-OV-3 [2] = conditions: read-out: IC50 ± SD SK-OV-3; parental line; results previously published; cited from earlier work
NCI-H23 = conditions: NCI panel, NSCLC; cited from earlier work
SF-539 = conditions: NCI panel, CNS cancer; cited from earlier work
MCF7 = conditions: NCI panel, breast cancer; cited from earlier work
SNB-75 = conditions: NCI panel, CNS cancer; cited from earlier work
RPMI-8226 = conditions: NCI panel, leukemia; cited from earlier work
SF-268 = conditions: NCI panel, CNS cancer; cited from earlier work
SK-OV-3 [3] = conditions: NCI panel, ovarian cancer; cited from earlier work
A549/ATCC = conditions: NCI panel, NSCLC; cited from earlier work
HT29 = conditions: NCI panel, colon cancer; cited from earlier work
EKVX = conditions: NCI panel, NSCLC; cited from earlier work
NCI-H522 = conditions: NCI panel, NSCLC; cited from earlier work
HCT-116 = conditions: NCI panel, colon cancer; cited from earlier work
TK10 = conditions: NCI panel, renal cancer; cited from earlier work
KM12 = conditions: NCI panel, colon cancer; cited from earlier work
HOP-62 = conditions: NCI panel, NSCLC; cited from earlier work
A498 = conditions: NCI panel, renal cancer; cited from earlier work
U251 = conditions: NCI panel, CNS cancer; cited from earlier work

Question: For `COc1ccc(N(C)c2nc(C)nc3c2CC(C)C3)cc1.Cl` (racemic) [(±)-1·HCl, N-(4-methoxyphenyl)-N,2,6-trimethyl-6,7-dihydro-5H-cyclo-penta[d]-pyrimidin-4-aminium chloride], which GI50 (MDA-MB-231/ATCC) is on record?
Answer: 24.6 nM

Question: What about the GI50 (CCRF-CEM) of the same compound?
Answer: 16.3 nM

Question: And the EC50 [1]?
Answer: 56 nM

Question: And the GI50 (K-562)?
Answer: < 10 nM

Question: And the GI50 (MOLT-4)?
Answer: 31.8 nM

Question: And the GI50 (COLO 205)?
Answer: 18.3 nM

Question: What about the GI50 (NCI-H226) of the same compound?
Answer: 31.5 nM

Question: And the GI50 (M14)?
Answer: 10.2 nM

Question: And the GI50 (UO-31)?
Answer: 13.4 nM

Question: What about the GI50 (RXF 393) of the same compound?
Answer: < 10 nM

Question: What about the GI50 (SK-MEL-28) of the same compound?
Answer: < 10 nM

Question: What about the IC50 (MDA-MB-435 cells) of the same compound?
Answer: 17 ± 0.7 nM

Question: What about the GI50 (SF-295) of the same compound?
Answer: < 10 nM

Question: What about the GI50 (HOP-92) of the same compound?
Answer: 55.4 nM

Question: And the GI50 (SNB-19)?
Answer: 36.9 nM

Question: And the GI50 (NCI-H322M)?
Answer: 59 nM

Question: And the IC50 (HeLa)?
Answer: 37.3 ± 4.1 nM

Question: And the GI50 (ACHN)?
Answer: 14.6 nM

Question: What about the GI50 (NCI-H460) of the same compound?
Answer: 23.4 nM

Question: What about the GI50 (HCC-2998) of the same compound?
Answer: 24 nM

Question: And the GI50 (PC-3)?
Answer: 14.6 nM

Question: And the “Rr (relative resistance)” value (HeLa WTβIII)?
Answer: 0.6

Question: What about the GI50 (LOX IMVI) of the same compound?
Answer: 22.7 nM

Question: And the GI50 (IGROVI)?
Answer: 11 nM

Question: And the GI50 (786–0)?
Answer: 34.8 nM

Question: And the GI50 (OVCAR-8)?
Answer: 32.8 nM

Question: What about the “Rr (relative resistance)” value (SK-OV-3 MDR1-M6/6) of the same compound?
Answer: 1.2

Question: What about the GI50 (HS 578T) of the same compound?
Answer: < 10 nM

Question: What about the GI50 (SR) of the same compound?
Answer: < 10 nM

Question: And the GI50 (OVCAR-5)?
Answer: 38.5 nM

Question: What about the GI50 (SN12C) of the same compound?
Answer: 31.8 nM

Question: And the GI50 (HCT-15)?
Answer: < 10 nM

Question: What about the GI50 (SK-MEL-5) of the same compound?
Answer: < 10 nM

Question: What about the GI50 (MDA-MB-435) of the same compound?
Answer: < 10 nM

Question: And the GI50 (MDA-MB-468)?
Answer: < 10 nM

Question: What about the GI50 (DU-145) of the same compound?
Answer: 21.4 nM

Question: What about the GI50 (BT-549) of the same compound?
Answer: 21.9 nM

Question: And the GI50 (NCI/ADR-RES)?
Answer: < 10 nM

Question: What about the GI50 (HL-60(TB)) of the same compound?
Answer: < 10 nM

Question: What about the GI50 (OVCAR-3) of the same compound?
Answer: < 10 nM

Question: What about the GI50 (OVCAR-4) of the same compound?
Answer: 26.8 nM

Question: And the IC50 (SK-OV-3 [2])?
Answer: 38.6 ± 3.1 nM

Question: And the GI50 (NCI-H23)?
Answer: 16.4 nM

Question: What about the GI50 (SF-539) of the same compound?
Answer: 11.4 nM

Question: What about the GI50 (MCF7) of the same compound?
Answer: < 10 nM

Question: And the GI50 (SNB-75)?
Answer: < 10 nM

Question: What about the GI50 (RPMI-8226) of the same compound?
Answer: 15.7 nM

Question: And the GI50 (SF-268)?
Answer: 15.2 nM

Question: What about the GI50 (SK-OV-3 [3]) of the same compound?
Answer: 27.5 nM

Question: And the GI50 (A549/ATCC)?
Answer: 24.4 nM

Question: What about the GI50 (HT29) of the same compound?
Answer: 11.8 nM

Question: What about the GI50 (EKVX) of the same compound?
Answer: 19.6 nM

Question: And the GI50 (NCI-H522)?
Answer: < 10 nM

Question: And the GI50 (HCT-116)?
Answer: 15.1 nM

Question: And the GI50 (TK10)?
Answer: 292 nM

Question: And the GI50 (KM12)?
Answer: < 10 nM

Question: And the GI50 (HOP-62)?
Answer: 19.4 nM

Question: And the GI50 (A498)?
Answer: < 10 nM

Question: What about the GI50 (U251) of the same compound?
Answer: 12.5 nM
